In patent publication US10202344B2, “Aryl substituted indoles and the use thereof” (Purdue Pharma L.P., priority 2010, dated 2019):

Each compound was assayed against human Nav1.7 (Homo sapiens (Human), UniProt Q15858) (assay: FLIPR or FLIPR TETRA sodium dye assay with KCl and test article pre-incubation). Conditions: read-out: FLIPR Nav1.7 IC50 (μM) ± SEM.
human Nav1.7, sequence (Q15858 other isoform, or with tags, fused parts or gaps): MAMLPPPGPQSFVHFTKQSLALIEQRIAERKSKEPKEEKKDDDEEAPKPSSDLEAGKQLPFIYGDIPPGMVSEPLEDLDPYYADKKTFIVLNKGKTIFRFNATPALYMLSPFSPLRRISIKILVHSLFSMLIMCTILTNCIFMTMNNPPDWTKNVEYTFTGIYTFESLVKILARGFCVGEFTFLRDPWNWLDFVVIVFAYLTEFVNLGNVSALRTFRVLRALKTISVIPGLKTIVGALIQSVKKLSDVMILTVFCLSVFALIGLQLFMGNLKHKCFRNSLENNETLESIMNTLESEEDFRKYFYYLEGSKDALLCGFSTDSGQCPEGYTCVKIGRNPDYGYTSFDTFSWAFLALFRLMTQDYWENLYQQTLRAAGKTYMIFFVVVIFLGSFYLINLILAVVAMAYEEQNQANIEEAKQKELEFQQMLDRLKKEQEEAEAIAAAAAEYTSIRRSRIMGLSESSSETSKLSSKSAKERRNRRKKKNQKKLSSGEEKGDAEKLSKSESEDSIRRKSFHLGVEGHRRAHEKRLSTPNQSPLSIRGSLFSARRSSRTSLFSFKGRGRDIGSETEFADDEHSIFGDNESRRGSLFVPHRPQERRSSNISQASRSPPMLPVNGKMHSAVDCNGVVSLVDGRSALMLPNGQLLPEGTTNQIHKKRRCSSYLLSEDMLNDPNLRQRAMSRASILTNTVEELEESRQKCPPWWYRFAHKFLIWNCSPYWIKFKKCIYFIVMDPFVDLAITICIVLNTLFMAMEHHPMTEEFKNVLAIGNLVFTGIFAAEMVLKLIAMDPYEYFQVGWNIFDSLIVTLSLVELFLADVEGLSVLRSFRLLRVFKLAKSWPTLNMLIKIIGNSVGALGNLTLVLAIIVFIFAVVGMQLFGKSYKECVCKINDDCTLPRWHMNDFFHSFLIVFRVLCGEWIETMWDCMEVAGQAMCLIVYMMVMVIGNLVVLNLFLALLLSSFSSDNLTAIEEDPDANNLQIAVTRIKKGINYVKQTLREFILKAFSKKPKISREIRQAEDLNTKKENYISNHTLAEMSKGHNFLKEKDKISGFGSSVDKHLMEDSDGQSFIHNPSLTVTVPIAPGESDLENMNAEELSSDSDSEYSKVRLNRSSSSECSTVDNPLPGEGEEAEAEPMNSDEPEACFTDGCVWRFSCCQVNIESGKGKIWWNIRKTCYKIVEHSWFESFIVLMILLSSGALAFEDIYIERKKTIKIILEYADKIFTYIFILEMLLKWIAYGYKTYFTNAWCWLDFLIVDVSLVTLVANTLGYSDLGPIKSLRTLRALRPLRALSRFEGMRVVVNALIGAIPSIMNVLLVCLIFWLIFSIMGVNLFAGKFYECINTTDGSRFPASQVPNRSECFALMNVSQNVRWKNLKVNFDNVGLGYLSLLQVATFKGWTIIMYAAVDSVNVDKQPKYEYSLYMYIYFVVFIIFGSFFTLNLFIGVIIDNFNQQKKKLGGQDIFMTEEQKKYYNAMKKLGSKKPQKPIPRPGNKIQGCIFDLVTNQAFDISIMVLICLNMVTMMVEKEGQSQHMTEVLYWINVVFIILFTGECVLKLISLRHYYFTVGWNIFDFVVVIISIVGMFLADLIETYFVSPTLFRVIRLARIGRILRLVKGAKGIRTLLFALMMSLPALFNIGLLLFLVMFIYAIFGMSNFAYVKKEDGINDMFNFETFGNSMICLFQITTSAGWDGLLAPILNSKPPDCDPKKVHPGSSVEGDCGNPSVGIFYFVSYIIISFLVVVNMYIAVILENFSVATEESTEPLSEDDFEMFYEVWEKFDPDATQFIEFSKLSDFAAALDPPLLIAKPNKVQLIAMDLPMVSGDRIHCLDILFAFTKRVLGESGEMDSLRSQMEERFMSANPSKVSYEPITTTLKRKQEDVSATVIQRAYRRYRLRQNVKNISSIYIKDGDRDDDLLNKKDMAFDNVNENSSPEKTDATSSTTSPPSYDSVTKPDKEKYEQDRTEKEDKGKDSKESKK
Format: cell-based
Compound N#Cc1cc(Oc2ccc(-n3cc(C(=O)C(N)=O)c4ccccc43)cc2)ccc1C(F)(F)F [Compound 59, 2-(1-(4-(3-Cyano-4-(trifluoromethyl)phenoxy)phenyl)-1H-indol-3-yl)-2-oxoacetamide] has an IC50 of 3.54 ± 0.459 µM. O=C(NCCO)c1nn(-c2ccc(Oc3ccccc3)cc2)c2ccccc12 [Compound 144, N-(2-hydroxyethyl)-1-(4-phenoxyphenyl)-1H-indazole-3-carboxamide] was tested, and the IC50 was 0.16 ± 0.049 µM.

Same assay, conditions: recombinant human Nav1.7 in HEK293 cells; sodium dye assay with KCl; read-out: FLIPR Nav1.7 IC50 (μM) ± SEM
CCOC(=O)C(Cc1c[nH]c2ccc(-c3ccc(Oc4ccccc4)cc3)cc12)[N+](=O)[O-] (centres unmarked) [Compound 6, 2-Nitro-3-[5-(4-phenoxyphenyl)-1H-indol-3-yl]propionic acid ethyl ester] gave an IC50 of 5.14 ± 0.954 µM. In the case of NCCc1cn(-c2ccc(Oc3ccccc3)cc2)c2ccccc12 [Compound 43, 2-(1-(4-Phenoxyphenyl)-1H-indol-3-yl)ethanamine], the IC50 is reported as 0.684 ± 0.041 µM. CN(C)CCc1cn(-c2ccc(Oc3ccccc3)cc2)c2ccc(C[C@H]3COC(=O)N3)cc12 [Compound 45, (S)-4-{[3-(2-(Dimethylamino)ethyl)-1-(4-phenoxyphenyl)-1H-indol-5-yl]methyl}oxazolidin-2-one] showed an IC50 of 1.9 ± 0.636 µM. N#Cc1cc(Oc2ccc(-n3cc(C[C@H]4COC(=O)N4)c4ccccc43)cc2)ccc1C(F)(F)F [Compound 46, (S)-5-{4-[3-((2-Oxooxazolidin-4-yl)methyl)-1H-indol-1-yl]phenoxy}-2-(trifluoromethyl)benzonitrile] was tested, and the IC50 was 0.715 ± 0.126 µM. N#Cc1cccc(Oc2ccc(-n3cc(C[C@H](N)CO)c4ccccc43)cc2)c1 [Compound 57, (S)-5-{4-[3-(2-Amino-3-hydroxypropyl)-1H-indol-1-yl]phenoxy}benzonitrile] gave an IC50 of 0.383 ± 0.081 µM. In the case of N#Cc1cc(Oc2ccc(-n3cc(C(=O)C(=O)NC[C@H](O)CO)c4ccccc43)cc2)ccc1C(F)(F)F [Compound 68, (S)-2-(1-(4-(3-cyano-4-(trifluoromethyl)phenoxy)-phenyl)-1H-indol-3-yl)-N-(2,3-dihydroxypropyl)-2-oxoacetamide], the IC50 is reported as 0.572 ± 0.137 µM. Work on N#Cc1cc(Oc2ccc(-n3cc(C(=O)C(=O)O)c4cc([C@@H](O)CO)ccc43)cc2)ccc1C(F)(F)F [Compound 98, (R)-2-(1-(4-(3-cyano-4-(trifluoromethyl)phenoxy)-phenyl)-5-(1,2-dihydroxyethyl)-1H-indol-3-yl)-2-oxoacetic acid] yielded an IC50 greater than 20 µM. In the case of NC(=O)c1nn(-c2ccc(Oc3ccc(C(F)(F)F)cc3)cc2)c2ccc(F)cc12 [Compound 150, 5-fluoro-1-(4-(4-(trifluoromethyl)phenoxy)phenyl)-1H-indazole-3-carboxamide], the IC50 is reported as 6.97 ± 0.934 µM. N#Cc1cc(Oc2ccc(-n3nc(C(N)=O)c4ccccc43)cc2)ccc1C(F)(F)F [Compound 152, 1-(4-(3-cyano-4-(trifluoromethyl)phenoxy)-phenyl)-1H-indazole-3-carboxamide] was tested, and the IC50 was 0.602 ± 0.053 µM. “(S)-3-(1-(4-(4-fluorophenoxy)phenyl)-1H-pyrrolo[2,3-c]pyridin-3-yl)propane-1,2-diol [Compound 170]” was tested, and the IC50 was 1.38 ± 0.542 µM.

What follows are compounds tested against hNav1.7 (Homo sapiens (Human), UniProt Q15858) (assay: Electrophysiology (EP) assay, whole-cell patch clamp). Conditions: hNav1.7 expressing HEK-293 cells, read-out: EP Nav1.7 Ki.
hNav1.7, sequence (Q15858 other isoform, or with tags, fused parts or gaps): as above
Format: cell-based
Method: Cells: The hNav1.7 expressing HEK-293 cells were plated on 35 mm culture dishes pre-coated with poly-D-lysine in standard DMEM culture media (Mediatech, Inc., Herndon, Va.) and incubated in a 5% CO2 incubator at 37° C. Cultured cells were used approximately 12-48 hours after plating.
Electrophysiology: On the day of experimentation, the 35 mm dish was placed on the stage of an inverted microscope equipped with a perfusion system that continuously perfuses the culture dish with fresh recording media. A gravity driven superfusion system was used to apply test solutions directly to the cell under evaluation. This system consists of an array of glass pipette glass connected to a motorized horizontal translator. The outlet of the shooter was positioned approximately 100 μm from the cell of interest.
Gigaseals were formed and the whole-cell configuration was established in voltage clamp mode, and membrane currents generated by hNav1.7 were recorded in gap-free mode. […] Signals were sampled at 50 kHz and low pass filtered at 3 kHz.
The voltage clamp protocol to examine hNav1.7 currents was as follows. […] The amount of inhibition produced by the test compound was determined by comparing the current amplitude elicited by the test pulse in the absence and presence of the compound. […]
Compound CN(C)CCc1cn(-c2ccc(Oc3ccccc3)cc2)c2ccc(C[C@H]3COC(=O)N3)cc12 [Compound 45, (S)-4-{[3-(2-(Dimethylamino)ethyl)-1-(4-phenoxyphenyl)-1H-indol-5-yl]methyl}oxazolidin-2-one] has a Ki of 1310 nM. For N#Cc1cccc(Oc2ccc(-n3cc(C[C@H](N)CO)c4ccccc43)cc2)c1 [Compound 57, (S)-5-{4-[3-(2-Amino-3-hydroxypropyl)-1H-indol-1-yl]phenoxy}benzonitrile], the Ki was 50 nM.
